This note sets out measurements from patent publication US20060160174A1, “Modified l49-sfv exhibiting increased stability and methods of use thereof” (priority 2002, published 2006).

The subject of the test is H3677 melanoma cells. In words: in vitro cytotoxicity assay with prodrug C-Mel (alamarBlue). The following applies: Homo sapiens. The format is cell-based. The protocol:
H3677 cells were plated into 96 well microtiter plates (5×10^3 cells/well in 100 μl of RPMI 1640 media (Invitrogen) with 10% fetal bovine serum) and allowed to adhere overnight. The cells were treated with FP95, FP990 or FP999 fusion (see Table 2) proteins at 10 nM. […] Melphalan was also added at the same concentrations to cells treated with medium alone. After 1 hour at 37° C. cells were washed three times with medium and incubated for 96 hours at 37° C. The cells were then incubated with 10% alamarBlue™ for 3 hours at 37° C. and excitation was measured in an ELISA plate reader at 570 nm.
The cells were treated with 10 nM L49-sFv-bL, unbound material was washed off and serial dilutions of C-Mel were added. C-Mel and the active drug, melphalan, were also applied to cells treated with media alone. Cell viability was measured using the redox indicator alamarBlue™.

The IC50 is the concentration at which inhibition is half-maximal. Consider `N[C@@H](Cc1ccc(N(CCCl)CCCl)cc1)C(=O)O` [melphalan], for which the IC50 was approximately 5 µM.
